The source of these data is BindingDB's records for doi:10.7270/Q2N301S8 (D3R/Abbott, 2020).

In the experiment the target is Beta-secretase 1 (Homo sapiens, UniProt P56817). In words: D3R2027.
Excerpt: D3R2027

Sequence of Beta-secretase 1 (P56817 whole entry): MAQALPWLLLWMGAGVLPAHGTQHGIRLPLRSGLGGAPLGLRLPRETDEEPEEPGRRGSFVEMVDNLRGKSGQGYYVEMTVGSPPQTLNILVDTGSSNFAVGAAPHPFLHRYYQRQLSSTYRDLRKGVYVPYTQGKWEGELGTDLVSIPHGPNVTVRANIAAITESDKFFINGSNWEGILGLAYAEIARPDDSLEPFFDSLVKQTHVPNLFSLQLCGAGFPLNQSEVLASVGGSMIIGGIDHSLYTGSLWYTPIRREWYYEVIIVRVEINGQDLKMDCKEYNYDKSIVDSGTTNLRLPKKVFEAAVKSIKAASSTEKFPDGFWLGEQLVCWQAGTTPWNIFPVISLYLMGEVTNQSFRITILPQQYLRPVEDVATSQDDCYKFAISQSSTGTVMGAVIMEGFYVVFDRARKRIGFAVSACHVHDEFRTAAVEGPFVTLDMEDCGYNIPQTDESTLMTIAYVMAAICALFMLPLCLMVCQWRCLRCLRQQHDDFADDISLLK

On to `CC(C)c1cccc(CNC[C@@H](O)[C@@H]2C[C@@H]3CC[C@H](CCCCCNc4cc(cc(C(F)(F)F)c4)C(=O)N2)C3)c1` [BACE_71], for which the IC50 – broadly, the concentration that inhibits the measured activity by half – is 340 nM.

Compound `CC(C)c1ccnc(C2(NC[C@@H](O)[C@@H]3C[C@H](C)CCCCCCCOc4cc(cc(Cl)n4)C(=O)N3)CC2)c1` [BACE_52] returned an IC50 of 7.5 nM.

In turn, `C[C@@H]1CCCCCCOCC(=O)N(C)[C@@H](C)C(=O)N[C@H]([C@H](O)CNC2(c3cccc(C(C)(C)C)c3)CC2)C1` [BACE_4] yielded an IC50 of 7.5 nM.

In the case of `CCCCNC(=O)[C@H](C)C[C@H](O)[C@@H]1Cc2ccc(O)c(c2)Cc2ccccc2OCCCCC(=O)N1` [BACE_158], it took 4000 nM to reach half-maximal inhibition (IC50).

Take `COCc1cc2cc(c1)C(=O)N[C@H]([C@H](O)CNCc1cc(C(F)(F)F)ccc1F)C[C@H](C)CCOCCCCN2` [BACE_76]: 5600 nM corresponded to half-maximal inhibition (IC50).

With `CCCCNC(=O)[C@H](C)C[C@H](O)[C@@H]1C[C@H](C)CCCC[C@H](C)CCC(=O)N[C@@H](C)C(=O)N1` [BACE_147], the concentration for half-maximal inhibition (IC50) was 920 nM.

Turning to `CC(C)c1ccc2c(c1)[C@@H](NC[C@@H](O)[C@@H]1Cc3cccc(c3)OCCCCCC(=O)N(C)[C@@H](C)C(=O)N1)CC(C)(C)O2` [BACE_91], it took 2 nM to reach half-maximal inhibition (IC50).

On to `C[C@@H]1CCCCCCCNc2cc(cc(-c3ncco3)c2)C(=O)N[C@H]([C@H](O)CNC2(c3cc(C(C)(C)C)ccn3)CC2)C1` [BACE_59], for which the 50% inhibitory concentration (IC50) stood at 1.7 nM.

Compound `Cc1cc2cc(n1)OCc1ccccc1COc1cccc(c1)C[C@@H]([C@H](O)CNC1(c3cccc(C(C)C)c3)CC1)NC2=O` [BACE_112] yielded an IC50 of 1400 nM.

In turn, `CC(C)c1ccnc(CNC[C@@H](O)[C@@H]2Cc3cccc(c3)CCCCOc3cc(cc(N4CCCC4=O)c3)C(=O)N2)c1` [BACE_136] displayed an IC50 of 27 nM.

Turning to `C[C@@H]1CCOCCCCNc2cc(ccc2Cl)C(=O)N[C@H]([C@H](O)CNCc2cc(C(C)(C)C)ccn2)C1` [BACE_74], it took 150 nM to reach half-maximal inhibition (IC50).

For `CC(C)c1cccc(CNC[C@@H](O)[C@@H]2C[C@H](C)CC/C=C/CCCNc3cc(CO)cc(c3)C(=O)N2)c1` [BACE_66], inhibition was half-maximal at 350 nM (IC50).

`CC(C)c1cccc(CNC[C@@H](O)[C@@H]2Cc3ccc(O)c(c3)Cc3ccccc3OCC(=O)N[C@@H](C)C(=O)N2)c1` [BACE_88] came in with a half-maximal inhibitory concentration (IC50) of 4300 nM.

As for `CCCCNC(=O)[C@H](C)C[C@H](O)[C@@H]1Cc2cccc(c2)CCCCCNc2cc(cc(OC)n2)C(=O)N1` [BACE_154], the concentration for half-maximal inhibition (IC50) came out at 130 nM.

In turn, `CC(C)c1cccc(CNC[C@@H](O)[C@@H]2Cc3cccc(c3)CCCCN(C)c3cccc(c3)C(=O)N2)c1` [BACE_118] had a 50% inhibitory concentration (IC50) of 1000 nM.

Compound `COCc1cc2cc(c1)C(=O)N[C@H]([C@H](O)CNCCc1ccncc1)C[C@H](C)CCCCCCCN2` [BACE_65] yielded a half-inhibitory concentration (IC50) of 1700 nM.

Regarding `CN(C)C(=O)c1cc2cc(c1)C(=O)N[C@H]([C@H](O)CNC1(c3cccc(C(C)(C)C)c3)CC1)Cc1ccc(F)c(c1)OC/C=C\CN2` [BACE_131], the concentration for half-maximal inhibition (IC50) was found to be 41 nM.

`COC(=O)c1cc2cc(c1)C(=O)N[C@H]([C@H](O)CNCc1cccc(C(C)C)c1)Cc1cccc(c1)CCCCO2` [BACE_134] had an IC50 of 180 nM.

Compound `C[C@@H]1CCCCCCCOc2cccc(c2)C(=O)N[C@H]([C@H](O)CNCc2cncc(CC(C)(C)C)c2)C1` [BACE_78] showed a half-inhibitory concentration (IC50) of 880 nM.

The compound `COCc1cc2cc(c1)C(=O)N[C@H]([C@H](O)CNC1(c3cccc(C(C)(C)C)c3)COC1)C[C@H](C)CCCCCCCN2` [BACE_60] returned an IC50 of 33 nM.

Compound `CCCCNC(=O)[C@H](C)C[C@H](O)[C@@H]1C[C@H](C)CCCCCN(CC)C(=O)c2cc(OCC)cc(c2)C(=O)N1` [BACE_1] displayed an IC50 of 16 nM.

`CC(C)c1cccc(CNC[C@@H](O)[C@@H]2C[C@H](C)CCCCCCCCc3cc(ccn3)C(=O)N2)c1` [BACE_53] came in with an IC50 of 10000 nM.

With `CC(C)Cc1cncc(CNC[C@@H](O)[C@@H]2C[C@H](C)CC/C=C/CCCCC(=O)N(C)[C@@H](C)C(=O)N2)c1` [BACE_25], the 50% inhibitory concentration (IC50) came to 130 nM.

The compound `CC(C)(NC[C@@H](O)[C@@H]1Cc2cccc(c2)OCCCCOc2cncc(c2)C(=O)N1)c1cccc(Br)c1` [BACE_138] showed an IC50 of 290 nM.

As for `COCc1cc2cc(c1)C(=O)N[C@H]([C@H](O)CNCc1cccc(C(C)C)c1)Cc1cccc(c1)OCCCCO2` [BACE_15], half-maximal inhibition (IC50) was put at 72 nM.

For the compound `CC(C)(C)Cc1cc(C(C)(C)NC[C@@H](O)[C@@H]2Cc3cccc(c3)OCCCCOc3cc(Cl)cc(c3)C(=O)N2)no1` [BACE_96], the IC50 stood at 8 nM.

The compound `COCc1cc2cc(c1)C(=O)N[C@H]([C@H](O)CNC1(c3cccc(C(C)(C)C)c3)CC1)C[C@H](C)CCOC/C=C\CN2` [BACE_75] returned an IC50 of 60 nM.

`CCOc1cc(CNC[C@@H](O)[C@@H]2C[C@H](C)CCOCCCCNc3cccc(c3)C(=O)N2)cc(C(F)(F)F)c1` [BACE_73] displayed a half-maximal inhibitory concentration (IC50) of 6300 nM.

`Cc1cc2cc(n1)OCCCOCC[C@@H](C)C[C@@H]([C@H](O)CNCc1cccc(C(C)C)c1)NC2=O` [BACE_54] came in with a 50% inhibitory concentration (IC50) of 1700 nM.

In the case of `C/C1=C\[C@@H]([C@H](O)CNCc2cccc(C(C)C)c2)NC(=O)c2cc(Cl)nc(c2)NCCCCOCC1` [BACE_49], half-maximal inhibition (IC50) required 470 nM.

`C[C@@H]1CCCCCCCOc2cc(cc(C(=O)N(C)C)c2)C(=O)N[C@H]([C@H](O)CNC2(c3cc(C(C)(C)C)ccn3)CC2)C1` [BACE_83] yielded an IC50 of 6 nM.

Turning to `Cc1cc2cc(n1)NC/C=C\COc1cc(ccc1F)C[C@@H]([C@H](O)CNC1(c3cccc(C(C)(C)C)c3)CC1)NC2=O` [BACE_102], the half-inhibitory concentration (IC50) turned out to be 100 nM.

For `C[C@H](NC[C@@H](O)[C@@H]1Cc2cccc(c2)OCCCCOc2cncc(c2)C(=O)N1)c1cc(CC(C)(C)C)on1` [BACE_125], inhibition was half-maximal at 6 nM (IC50).

For `C[C@H]1C(=O)N[C@H]([C@H](O)CNCc2cncc(C3CC3)c2)Cc2cccc(c2)CCCCCCC(=O)N1C` [BACE_87], the IC50 is 1100 nM.

`COCc1cc2cc(n1)NCCCCOCC[C@@H](C)C[C@@H]([C@H](O)CNC1(c3cccc(C(C)(C)C)c3)CC1)NC2=O` [BACE_47] gave a half-inhibitory concentration (IC50) of 5.5 nM.

For the compound `CC(C)c1cccc(CNC[C@@H](O)[C@@H]2C[C@H](C)CCCCCOCC(=O)N(C)[C@@H](C)C(=O)N2)c1` [BACE_34], it took 1000 nM to reach half-maximal inhibition (IC50).

In turn, `COCc1cc2cc(c1)C(=O)N[C@H]([C@H](O)[C@H]1CO[C@@H](COC)CN1)Cc1cccc(c1)OCCCCN2` [BACE_13] came in with an IC50 of 8300 nM.

In turn, `CCCCNC(=O)[C@H](C)C[C@H](O)[C@@H]1Cc2cccc(c2)CCCCNc2cc(cc(C)n2)C(=O)N1` [BACE_155] showed an IC50 of 240 nM.

Compound `CC(C)(C)Cc1cc(C(C)(C)NC[C@@H](O)[C@@H]2Cc3cccc(c3)OCCCCOc3cncc(c3)C(=O)N2)no1` [BACE_109] had a half-maximal inhibitory concentration (IC50) of 4.5 nM.

Consider `C[C@@H]1CCCCCCCCC(=O)N(C)[C@@H](C)C(=O)N[C@H]([C@H](O)CNC(C)(C)c2cccc(Br)c2)C1` [BACE_28], for which the concentration for half-maximal inhibition (IC50) was 230 nM.

Compound `CCCCNC(=O)[C@H](C)C[C@H](O)[C@@H]1C[C@H](C)CCCCCCNc2cc(cc(OC)n2)C(=O)N1` [BACE_152] yielded a 50% inhibitory concentration (IC50) of 460 nM.

In turn, `Cc1cc2cc(n1)OCCCCc1cccc(c1)C[C@@H]([C@H](O)CNC(C)(C)c1cccc(C(C)C)c1)NC2=O` [BACE_106] gave a half-inhibitory concentration (IC50) of 150 nM.

With `C[C@@H]1CCCCCCNC(=O)C[C@@H](C)C(=O)N[C@H]([C@H](O)CNCc2cccc(C(C)(C)C)c2)C1` [BACE_37], the 50% inhibitory concentration (IC50) was 5900 nM.

Regarding `C[C@@H]1CCCCCCCNc2cccc(c2)C(=O)N[C@H]([C@H](O)CNCc2cc(C(C)(C)C)[nH]n2)C1` [BACE_58], the midpoint of inhibition, the IC50, lay at 1900 nM.
